We go through 19 compounds from US5362744A, “Tetrazole-substituted urea acat inhibitors” (Warner-Lambert Company, priority 1993, dated 1994).

One data set concerns total cholesterol. Description: in vivo screen designated APCC (total cholesterol in rats on PCC diet). The note with it: Rattus norvegicus, PCC diet overnight, read-out: APCC (%ΔTC): percent change in total cholesterol between control and drug-treated animals. More on the design: species or system male Sprague-Dawley rats. An excerpt: In one in vivo screen designated APCC, male Sprague-Dawley rats (200 to 225 g) were randomly divided into treatment groups and dosed at 4 PM with either vehicle (CMC/Tween) or suspensions of compounds in vehicle. The normal chow diet was then replaced with the PCC diet (5.5% peanut oil, 1.5% cholesterol, and 0.5% cholic acid). The rats consumed this diet ad libitum during the night and were sacrificed at 8 AM to obtain blood samples for cholesterol analysis using standard procedures. Statistical differences between mean cholesterol values for the same vehicle were determined using analysis of variance followed by Fisher's least significant test. The results of this trial for representative compounds of the present invention appear in Table II wherein percent change means the difference in total cholesterol between control, and the drug-treated animals.

Another data set concerns adrenal gland. Description: in vivo toxicity screen in guinea pigs (adrenal histopathology). The arrangement: species or system male guinea pigs of the Hartley strain. Conditions: 100 mg/kg daily by gavage, 2 weeks; for adrenal toxicity class: oleic acid vehicle. Here is the method:
The nontoxic nature of representative compounds of the present invention was measured and compared against previously disclosed tetrazole urea ACAT inhibitors using an in vivo toxicity screen developed by Dominick, et al., 1993. Male guinea pigs of the Hartley strain (450-500 g) were obtained from Charles River and randomly divided into treatment groups. They were fed standard guinea pig chow ad libitum and dosed daily (AM) by gavage (100 mg/kg). The test compounds were dissolved or suspended in an oleic acid vehicle to facilitate absorption. After 2 weeks the animals were sacrificed by CO2 asphyxiation in the nonfasted state 16 hours after the last dose. Adrenal glands were weighed, fixed in 10% formalin, processed by routine paraffin techniques, sectioned, and then stained with hematoxylin and eosin for light microscopy. Toxicity was defined by the incidence, severity, and complexity of adrenal histopathologic alterations in the zona fasciculata (e.g., adrenal cortical atrophy, increased coarse vacuolation, single cell necrosis, inflammatory cell infiltrates, mineralization/ectopic bone formation, and increased cytoplasmic eosinophilia).

Regarding `CC(C)c1cccc(C(C)C)c1NC(=O)N(c1ccccc1)c1nnn(CCCCCCCCOC2CCCCO2)n1` (racemic) [Example 10, (±)N'-[2,6-bis(1-methylethyl)phenyl]-N-phenyl-N-[2-[8-[(tetrahydro-2H-pyran-2-yl)oxy]octyl]-2H-tetrazol-5-yl]-urea], the change in vivo at 30 mg/kg with total cholesterol is -42%.

As to `COc1cc(OC)c(NC(=O)N(c2ccccc2)c2nnn(CCCCCCCCOC3CCCCO3)n2)c(OC)c1` (racemic) [Example 11, (±)N-phenyl-N-[2-[8-[(tetrahydro-2H-pyran-2-yl)oxy]octyl]-2H-tetrazol-5-yl]-N'-(2,4,6-trimethoxyphenyl)-urea], the change in vivo at 30 mg/kg with total cholesterol is -50%.

With `O=C(Nc1ccc(F)cc1F)N(c1ccccc1)c1nnn(CCCCCCCCOC2CCCCO2)n1` (racemic) [Example 12, (±)N'-(2,4-difluorophenyl)-N-phenyl-N-[2-[8-[(tetrahydro-2H-pyran-2-yl)oxy]octyl]-2H-tetrazol-5-yl]-urea], the change in vivo at 30 mg/kg in the data set on total cholesterol was -37%.

Regarding `CCCCCCCCCCCCn1nnc(N(C(=O)Nc2c(C(C)C)cccc2C(C)C)c2ccccc2)n1` [Example 1, N'-[2,6-Bis(1-methylethyl)phenyl]-N-(2-dodecyl-2H-tetrazol-5-yl)-N-phenyl-urea], the change in vivo at 30 mg/kg in the data set with total cholesterol was -52%.

Turning to `CCCCCCCCCCCCn1nnc(N(C(=O)Nc2c(OC)cc(OC)cc2OC)c2ccccc2)n1` [Example 2, N-(2-dodecyl-2H-tetrazol-5-yl)-N-phenyl-N'-(2,4,6-trimethoxyphenyl)-urea], in the data set with total cholesterol, the change in vivo at 30 mg/kg is -74%.

`CCCCCCCCCCCCn1nnc(N(C(=O)Nc2ccc(F)cc2F)c2ccccc2)n1` [Example 3, N'-(2,4-Difluorophenyl)-N-(2-dodecyl-2H-tetrazol-5-yl)-N-phenyl-urea]: the change in vivo at 30 mg/kg with total cholesterol was -63%.

Regarding `CCCCCCCCCCCCn1nnc(N(C(=O)Nc2c(C(C)C)cccc2C(C)C)C2CCCCC2)n1` [Example 4, N'-[2,6-bis(1-methylethyl)phenyl]-N-cyclohexyl-N-(2-dodecyl-2H-tetrazol-5-yl)-urea], in the data set with total cholesterol, the change in vivo at 30 mg/kg is -10%.

In the case of `CCCCCCCCCCCCn1nnc(N(C(=O)Nc2c(OC)cc(OC)cc2OC)C2CCCCC2)n1` [Example 5, N-cyclohexyl-N-(2-dodecyl-2H-tetrazol-5-yl)-N'-(2,4,6-trimethoxyphenyl)-urea], in the data set on adrenal gland, the “drug related adrenal changes” value is listed as “no drug related adrenal changes” and the adrenal toxicity class result is “nontoxic to the adrenal gland”. For the same compound, the change in vivo at 30 mg/kg in the data set on total cholesterol is -67%.

As to `CCCCCCCCCCCCn1nnc(N(C(=O)Nc2ccc(F)cc2F)C2CCCCC2)n1` [Example 6, N-Cyclohexyl-N'-(2,4-difluorophenyl)-N-(2-dodecyl-2H-tetrazol-5-yl)-urea], in the data set on total cholesterol, the change in vivo at 30 mg/kg was -33%.

With `CCCCCCCCCCCCCCn1nnc(N(C(=O)Nc2c(OC)cc(OC)cc2OC)c2ccccc2)n1` [Example 7, N-phenyl-N-(2-tetradecyl-2H-tetrazol-5-yl)-N'-(2,4,6-trimethoxyphenyl)-urea], the change in vivo at 30 mg/kg in the data set with total cholesterol is -22%.

Consider `CCCCCn1nnc(N(C(=O)Nc2c(OC)cc(OC)cc2OC)c2ccccc2)n1` [Example 8, N-(2-pentyl-2H-tetrazol-5-yl)-N-phenyl-N'-(2,4,6-trimethoxyphenyl)-urea], for which the change in vivo at 30 mg/kg in the data set on total cholesterol is -43%.

Take `CCCCCCCCCCCCn1nnc(CN(Cc2ccccc2)C(=O)Nc2c(OC)cc(OC)cc2OC)n1` [Example 9, N-(2-Dodecyl-2H-tetrazol-5-ylmethyl)-N-(phenylmethyl)-N'-(2,4,6-trimethoxyphenyl)-urea]: the change in vivo at 30 mg/kg with total cholesterol is -49%.

Regarding `CC(C)c1cccc(C(C)C)c1NC(=O)N(c1ccccc1)c1nnn(CCCCCCCCO)n1` [Example 13, N'-[2,6-Bis(1-methylethyl)phenyl]-N-[2-(8-hydroxyoctyl)-2H-tetrazol-5-yl]-N-phenyl-urea], in the data set on total cholesterol, the change in vivo at 30 mg/kg is -17%.

Consider `COc1cc(OC)c(NC(=O)N(c2ccccc2)c2nnn(CCCCCCCCO)n2)c(OC)c1` [Example 14, N-[2-(8-hydroxyoctyl)-2H-tetrazol-5-yl]-N-phenyl-N'-(2,4,6-trimethoxyphenyl)-urea], for which the change in vivo at 30 mg/kg in the data set on total cholesterol was -15%.

Regarding `CC(C)c1cccc(C(C)C)c1NC(=O)N(c1ccccc1)c1nnn(CCCCCCCC=O)n1` [Example 15, N'-[2,6-bis(1-methylethyl)phenyl]-N-[2-(8-oxooctyl)-2H-tetrazol-5-yl]-N-phenyl-urea], the change in vivo at 30 mg/kg with total cholesterol is -29%.

As to `COc1cc(OC)c(NC(=O)N(c2ccccc2)c2nnn(CCCCCCCC=O)n2)c(OC)c1` [Example 16, N-[2-(8-oxooctyl)-2H-tetrazol-5-yl]-N-phenyl-N'-(2,4,6-trimethoxyphenyl)-urea], the change in vivo at 30 mg/kg in the data set on total cholesterol was -8%.

For `CCN(CC)CCCCCCCCn1nnc(N(C(=O)Nc2c(C(C)C)cccc2C(C)C)c2ccccc2)n1` [Example 17, N'-[2,6-bis(1-methylethyl)phenyl]-N-[2-[8-(diethylamino)octyl]-2H-tetrazol-5-yl]-N-phenyl-urea], in the data set with total cholesterol, the change in vivo at 30 mg/kg was -30%.

Take `CCCCCCCCCCCCn1nnc(NC(=O)Nc2c(C(C)C)cccc2C(C)C)n1` [N-[2,6-bis(1-methylethyl)-phenyl]-N'-(2-dodecyl-2H-tetrazol-5-yl)-urea]: in the data set with adrenal gland, the “cytotoxic zonal atrophy of the zona fasciculata (treated animals affected)” value is on record as 3/6, the “increased coarse vacuoles (animals affected)” value is given as 5/6, the “inflammatory cell infiltrates (animals affected)” value is reported as 2/6 and the “necrosis of the adrenal cortex (animals affected)” value is 2/6. Also, the adrenal toxicity class entry in the data set on adrenal gland is recorded as “highly toxic to the adrenal gland”.

As to `CCCCCCCCCCCCCn1nnc(NC(=O)Nc2c(C(C)C)cccc2C(C)C)n1` [N-[2,6-bis(1-methylethyl)-phenyl]-N'-(2-tridecyl-2H-tetrazol-5-yl)-urea], in the data set with adrenal gland, the “cytotoxic zonal atrophy of the zona fasciculata (treated animals affected)” value is given as 4/6, the “increased coarse vacuoles (animals affected)” value is given as 5/6, the “inflammatory cell infiltrates (animals affected)” value is 2/6 and the “necrosis of the adrenal cortex (animals affected)” value is reported as 3/6. Moreover, in the data set with adrenal gland, the adrenal toxicity class result was “highly toxic to the adrenal gland”.
